Tests used:
L. monocytogenes 272 = test: Chicken soup trial at 8° C.; format: cell-based, Listeria monocytogenes; conditions: chicken soup at 8° C.
From the text: A local supermarket brand of cream of chicken soup was used as a model food system. 600 g packs were purchased from the local supermarket. This was a ‘fresh home-made type’ of soup that was stored in the chill cabinet, with a short shelf life. It was chosen because it is a rich, nutritious food system containing a range of food components including meat, dairy and vegetable.
Ingredients were labelled as: chicken stock (water, duck fat, chicken, salt, flavourings, yeast extracts, pork gelatine, glucose syrup, vegetable concentrate, milk protein, sugar, malto-dextrin, vegetable oil, citric acid, lactose, chicken fat), ilk, chicken (9%), cream (8%), onion, potato, vegetable oil, modified maize starch, wheat flour, lemon juice, salt, white pepper. pH 5.912. Protein: 3.3%; carbohydrate: 4.7%; fat: 7.2%; fibre: 0.2%; sodium: 0.1%
For the test the soup was mixed 2:1 in water (to facilitate sampling and mixing) and sterilised by autoclaving at 121° C. for 15 minutes. For each experiment the pH of the soup was recorded; this was between pH 5.79-5.88.
For TCS010412/8 (which was incubated at 8° C.), APP batch number APP20010213 (concentration 169 mg APP/ml) was used to prepare tests containing 0, 2000 or 4000 ppm APP. 5 g of filter-sterilised APP stock solution was added to 94 g of soup, mixed and then 1 ml of a diluted inoculum suspension (cells or spores as appropriate) was added to give a test inoculum level of 10^3 cfu/g. The soup mixture was shaken vigorously to ensure homogeneous distribution of the APP and micro-organisms. The tests were tested by viable count and then incubated at 8° C. and tested on a twice-weekly basis.
For TCS010521/8 (incubated at 8° C.), samples were prepared in 27.8 g quantities. 1.5 g of an APP stock solution was added, and the tests inoculated with 0.3 ml of a suitably diluted cell or spore suspension to give a final inoculum of ca. 10^3 cfu/g. APP was tested at 0, 500 and 1000 ppm, and batch number APP20010213 (at 169 mg/ml) was used. The tests were sampled by viable count and then incubated at 8° C. and tested on a twice-weekly basis.

Lb. sake = test: Test in milk; format: cell-based, Lactobacillus sake; conditions: for Control of growth: 2000 ppm, TMGB010605
Method: 8.9 ml samples of UHT milk containing 0.5% glucose and the indicator bromocresol purple (0.01%) were prepared and sterilised by autoclaving. The pH before APP addition was pH 6.65. Appropriate stock solutions of APP batch number APP20010215 (at 138 mg/ml) were prepared and filter sterilised. 1 ml of each was added to the milk to prepare tests containing 0, 1000 and 2000 ppm APP. Tests were then inoculated with 100 μl of diluted overnight broth cultures or spore suspensions to give a final inoculum level of ca. 10^3 cfu/ml. These and uninoculated tests were incubated at 20 and 8° C. and examined daily for visible changes compared to uninoculated control.

Lb. sake A10 = test: Test in cooked sausage meat slurry; format: cell-based, Lactobacillus sake; conditions: for Effect on growth: cooked sausage meat slurry at 8° C., pH 6.2, TSM010605
From the text: 500 g of bologna sausage meat mixture was mixed with 500 g Brain Heart Infusion broth (BHIB) to make a homogeneous slurry. The bologna sausage meat mix comprised (g per kg): lean beef 320; lean pork 202; lard 250; water 40; glucose 5; starch 155; spice mix 3.75; sodium glutamate 0.5; sodium erythorbate 0.545; sodium di-phosphate 3; NaCl 20; sodium nitrite 0.15. 200 g samples of the meat slurry were autoclaved. While the meat was still warm it was re-mixed thoroughly. When the meat had cooled it was inoculated with 2 ml of 10^5 cfu/ml spore or cell suspension, and re-mixed again. Each inoculated meat sample was divided into 3×50 g samples, and 1 ml of either SDW, 2.5% or 5% APP solution (batch number APP 20010215) was added to prepare meat samples containing 0, 500 and 1000 ppm APP. The meat slurry was again shaken thoroughly to ensure even mixing, an initial viable count was taken and the samples incubated at 8° C. Samples were taken at twice-weekly intervals. The pH of the sausage meat slurry was 6.2.

B. cereus 204 = test: Bioscreen growth inhibition test; format: cell-based, Bacillus cereus; conditions: BS010411, 24 h at 30° C.
Method: (§1) For broth cultures and Bioscreen testing most bacteria were grown in Brain Heart Infusion (BHI, Oxoid, pH 7.4). Lactobacillus sake A10 was grown in de Man, Rogosa, Sharpe medium ([…], Oxoid). Yeasts were grown in Sabouraud Liquid medium (SLM, Oxoid). Most bacteria were cultured at 30° C. Lactic acid bacteria were grown on solid medium in enriched CO2 atmosphere. Clostridium species were grown in Reinforced Clostridial Medium (RCM) at 37° C. anaerobically. Brochothrix thermosphacta fungi and yeasts were grown at 25° C. Fungi were cultured on Malt Extract Agar (MEA, Oxoid).
(§2) An automated Microbiology Reader Bioscreen C was used to measure growth curves of the strains in the presence and absence of APP. The Bioscreen C measures the development of turbidity (i.e. growth) kinetically by vertical photometry in 200 wells of a honeycomb microtitre plate, simultaneously. The system consists of a Bioscreen C analyser, which is an incubator and measurement unit, integrated with a PC, software (BioLink v 5.30), printer and a ‘Honeycomb 2’ cuvette multiwell plate. Growth curve data can be analysed within the BioLink software or exported to programs such as Excel.
(§3) Broth culture media were dispensed in 270 μl volumes into the wells as directed. Serial dilutions of a filter-sterilised APP stock solution were then dispensed into the same wells, as appropriate. The wells were inoculated with 30 μl of an appropriately diluted overnight broth culture or spore suspension, to give a final inoculum level of […]. The tests were incubated in the Bioscreen C for either 24 h at 30° C., or 72 h at 25° C. (depending on the micro-organism under investigation) with readings taken every 20 minutes after the trays were shaken. After the incubation period was complete the data were exported to Excel for analysis.

B. cereus 3.046 = test: Bioscreen growth inhibition test; format: cell-based, Bacillus cereus; conditions: BS010510, 24 h at 30° C., APP20010213
Method: as §1, §2, §3

B. cereus Campden = test: Bioscreen growth inhibition test; format: cell-based, Bacillus cereus; conditions: BS010411, 24 h at 30° C.
Method: as §1, §2, §3

[1] = 2000 ppm, TCS010412, APP20010213
[2] = 4000 ppm, TCS010412, APP20010213

In the case of `O=C1CC(CO)OC=C1O` (stereo not drawn) [APP, Ascopyrone P], the Effect on growth (L. monocytogenes 272; 500 ppm, TCSM010521, APP215) was “No effect with 500 ppm”, the Effect on growth (L. monocytogenes 272; 1000 ppm, TCSM010521, APP215) was “No total inhibition” and the “Effect on growth rate” value (L. monocytogenes 272; 1000 ppm, TCSM010521, APP215) was “slight reduction”. For the same molecule, the Counts reach (L. monocytogenes 272; [1]) was “Counts reach <105 with 2000 ppm”, the Counts undetectable after (L. monocytogenes 272; [1]) was “Counts undetectable after ca 50 days at 2000 ppm” and the Counts undetectable after (L. monocytogenes 272; [2]) was “Counts undetectable after 20 days at 4000 ppm”. The “Total inhibition for” value (L. monocytogenes 272; [2]) was “Total inhibition by 4000 ppm for >60 days”, the Control of growth (Lb. sake; milk at 8° C.) was “No control observed” and the Control of growth (Lb. sake; milk at 20° C.) was “No control observed”. For the same molecule, the “No inhibition (effect on growth of target organism by 2000 ppm APP)” value (Lb. sake; Milk at 8° C. pH 6.65) was “Lb. sake”, the “No inhibition (effect on growth of target organism by 2000 ppm APP)” value (Lb. sake; Milk at 20° C. pH 6.65) was “Lb. sake” and the Effect on growth (Lb. sake A10; 500 ppm) was “No effect with 500 and 1000 ppm”. For the same molecule, the Effect on growth (Lb. sake A10; 1000 ppm) was “No effect with 500 and 1000 ppm”, the “No inhibition (effect on growth of target organism by APP)” value (Lb. sake A10; Cooked sausage meat slurry at 8° C. pH 6.2, (1000)) was “Lb. sake (1000)” and the “APP level causing significant inhibition” value (B. cereus 204; APP20010213) was 4000 ppm. For the same molecule, the “APP level causing total inhibition” value (B. cereus 204; APP20010213) was >4000 ppm, the “APP level causing significant inhibition” value (B. cereus 204; APP20010215) was 2000 ppm and the “APP level causing total inhibition” value (B. cereus 204; APP20010215) was 4000 ppm. For the same molecule, the “APP level causing significant inhibition” value (B. cereus 3.046) was 2000 ppm, the “APP level causing total inhibition” value (B. cereus 3.046) was 3000 ppm and the “APP level causing significant inhibition” value (B. cereus Campden; APP20010213) was 2000 ppm. The “APP level causing total inhibition” value (B. cereus Campden; APP20010213) was 4000 ppm, the “APP level causing significant inhibition” value (B. cereus Campden; APP20010215) was 2000 ppm and the “APP level causing total inhibition” value (B. cereus Campden; APP20010215) was >4000 ppm.

From US20030203963A1, “Antimicrobial agent” (priority 2001, published 2003)
